Experimental data: patent US12150942B2, “Cerdulatinib for treating myeloma” (Alexion Pharmaceuticals, Inc., priority 2015, dated 2024)
“Also recorded” adds a separate entry of the source.

How the values were obtained:
[1] = system: multiple myeloma cell lines (LP1, OPM2, MOLP1, RPMI8226, U266B1, NCIH929); assay: Caspase3 activation (apoptosis) in multiple myeloma cell lines; type: cell-based; settings: FGFR3 positive and FGFR3 negative MM cell lines; BI-D1870 at 1.2 μM, 2.5 μM, 5 μM
Description: (§1) Six multiple myeloma cell lines were tested in this example for the expression level of p90RSK. The cell lines included LP1, OPM2, MOLP1, RPMI8226, U266B1, and NCIH929. Beta-actin was used as control, and the expression levels of FGF receptor 3 (FGFR3), phospho-S380 RSK. and RSK1/RSK2/RSK3 were also measured.
A p90RSK inhibitor, BI-D1870 (see, e.g., Sapkota et al., Biochem J. 2007, 401(Pt 1): 29-38), was added to the medium for each cell line at three difference concentrations. 1.2 μM, 2.5 μM, and 5 μM.
(§2) Cerdulatinib was tested with same cell lines as used in Example 1. […] Also like BI-D1870, there was no relationship between the activity of cerdulatinib and the status of FGFR3.

[2] = system: multiple myeloma cell lines (LP1, OPM2, MOLP1, RPMI8226, U266B1, NCIH929); assay: Cell proliferation (EdU as indicator) in multiple myeloma cell lines; type: cell-based; settings: FGFR3 positive and FGFR3 negative MM cell lines
Description: as §1, §2

[3] = system: AML (Acute Myeloid Leukemia) cell lines; assay: Cytotoxicity in AML cell lines; type: cell-based; settings: four different AML cell lines; compared with Ruxolitinib and Comp A
Description: The cytotoxicity of cerdulatinib in AML (Acute Myeloid Leukemia) was tested in four different cell lines.

[4] = system: DLBCL, MCL, Burkitt's lymphoma, ALL, MM and AML cells; assay: Cytotoxicity (IC50) across cancer types; type: cell-based
Description: The cytotoxicity of cerdulatinib was also compared to Comp A in other types of cancer cells.

[5] = Pharmacokinetics in 3+3 dose escalation study; type: in vivo, human
Description: (§3) Methods: This experiment was a 3+3 dose escalation study with 28-day cycles and doses studied ranging from 15 mg to 100 mg QD, and up to 45 mg BID. PK, PD, and safety were monitored. Clinical response was assessed by standard criteria. The level of inhibition of SYK and JAK was determined by multiple whole blood assays measuring signaling via BCR, IL2, IL4, IL6, and GM-CSF. Serum markers of tumor burden-CCL3, CCL4, and other markers of inflammation-B2M, CRP, were also measured.

SYK and JAK signaling = assay: Whole blood assays of SYK and JAK signaling (BCR, IL2, IL4, IL6, GM-CSF); type: in vivo, human; settings: 45 mg BID; steady-state Cmin; peripheral blood assays
Description: as §3

[6] = system: serum markers of inflammation (B2M, CRP); assay: Serum markers of inflammation in dosed patients; type: in vivo, human; settings: once daily 40-100 mg
Description: as §3

[7] = system: patients with CLL/SLL or B cell NHL; assay: Safety in 3+3 dose escalation study; type: in vivo, human
Description: as §3
(§4) Results: As of Jan. 7, 2016, 41 patients (pt) with CLL/SLL or B cell NHL were dosed. Median age was 67 years (range 23-85) and median prior therapies (tx) was 3 (range 1-8). […] The patient with grade 3 AST had tumor progression to the liver. The pancreatitis at 45 mg BID was considered at DLT and the cohort is expanding to approximately 6 patients.

[8] = system: patients with CLL/SLL or B cell NHL; assay: Clinical response by standard criteria in dose escalation study; type: in vivo, human; settings: 28-day cycles
Description: as §3, §4

Row | Compound | activation of Caspase3 expression (indicator of apoptosis) [1] | inhibition of cell proliferation (EdU as indicator) [2] | cytotoxicity in AML cells [3] | IC50 (cytotoxicity) compared to Comp A [4] | steady-state Cmin ([5]; 45 mg BID) | change in systemic exposure ([5]; 45 mg BID relative to previous dose levels) | average steady state Cmin ([5]; 40-100 mg dose range, once daily) [nM] | Cmax ([5]; human, in vivo, 40-100 mg dose range, once daily, read-out: average steady state Cmax) [nM] | half-life ([5]; human, in vivo, patients, once daily dosing) [h] | solubility / dissolution ([5]; inferred from plateau of exposure over 40-100 mg) | inhibition of SYK and JAK (SYK and JAK signaling) | inhibition of serum markers of inflammation [6] | tolerability ([7]; 15 mg to 100 mg QD, up to 45 mg BID, 41 patients) | treatment emergent AEs of ≥ grade 3 deemed related to study drug ([7]; 30 mg) | treatment emergent AEs of ≥ grade 3 deemed related to study drug ([7]; 45 mg) | treatment emergent AEs of ≥ grade 3 deemed related to study drug ([7]; 45 mg BID, considered DLT) | treatment emergent AEs of ≥ grade 3 deemed related to study drug ([7]; 50 mg) | treatment emergent AEs of ≥ grade 3 deemed related to study drug ([7]; 65 mg) | treatment emergent AEs of ≥ grade 3 deemed related to study drug ([7]; 100 mg) | time at which responses occurred [8]
1 | CC(C)CCN1c2nc(Nc3cc(F)c(O)c(F)c3)ncc2N(C)C(=O)C1C (stereo not shown) [BI-D1870, reference compound] | dose-dependently activated the expression of Caspase3 | dose-dependently inhibited cell proliferation |  |  |  |  |  |  |  |  |  |  |  |  |  |  |  |  |  | 
2 | CCS(=O)(=O)N1CCN(c2ccc(Nc3ncc(C(N)=O)c(NC4CC4)n3)cc2)CC1 [cerdulatinib, 4-(cyclopropylamino)-2-(4-(4-(ethylsulfonyl)piperazin-1-yl)phenylamino)pyrimidine-5-carboxamide] | activated apoptosis; also recorded: dose-dependently activated caspase3 expression | dose-dependently inhibited cell proliferation | more active than Ruxolitinib, a JAK inhibitor, and Comp A; also recorded: active in killing AML cells | more potent than Comp A | approximately 1.5 μM | approximate doubling in exposure; also recorded: doubled | 700 ± 200 | 1380 | 12 to 16 | low pH solubility appeared to limit dissolution | complete inhibition | Significant inhibition | well tolerated | neutropenia (n=2), anemia (n=1), and pneumocystis pneumonia (grade 5, n=1) | anemia, AST increase, hypotension, thrombocytopenia (n=1 for each), and fatigue (n=2) | pancreatitis (n=1) | anemia, neutropenia, abdominal pain, pneumonia, and fatigue (n=1 for each) | diarrhea and fatigue (n=1 for each) | nausea (n=1) | 2 cycles of tx
